The test system of assay [1] is p50/p65 complex. Put plainly: stable HEK293T p50/p65 YFP PCA cell line, nuclear translocation (N:C ratio). The assay is classed as cell-based. Particulars: 10 micromolar compound, 25 ng/ml TNF 30 minutes. How it is done: Stable cell lines represent the gold standard for HTS since the assays can be reconstructed at any time from frozen stocks of cells. […] First, cells were co-transfected with YFP[2]-p65 encoding vectors, and stable cell lines were selected using 100 micrograms/ml of Hygromycin B (Invitrogen). Selected cell lines were then transfected with YFP[1]-p50. Stable cell lines expressing YFP[1]-p50/YFP[2]-p65 were isolated following double antibiotic selection with 50 μg/ml Hygromycin B and 500 μg/ml Zeocin. Cell clones stably expressing the fusion genes were identified by immunoblot analysis and fluorescence microscopy. A single cell line of each transfectant was selected for further characterization. Fluorescence of these lines is stable over at least 25 passages (data not shown). A stable, MEK/ERK cell line—constructed as described below—was used as a control for TNF effects. Fugene 6 (Roche) was used for all the transfections according to manufacturer's directions. Cells stably expressing YFP[1]-p50/YFP[2]-p65 were seeded at 20,000 cells/well in black-walled poly-lysine coated 96 well plate (Greiner). Twenty-four hours later, the cells were incubated with human TNF-alpha (Roche) for 30 min. Nuclei were stained with Hoechst 33342 (Molecular Probes) at 10 micrograms/ml for 10 min. Cells were rinsed with HBSS (Invitrogen) and kept in the same buffer. Fluorescence was visualized and images were acquired using a Discovery-1 automated fluorescence imager (Molecular Devices, Inc.) equipped with excitation and emission filters 470/35 and 535/60, respectively. […] For the high throughput screening campaign described below, cells were pretreated with compounds (10 micromolar) for 60 minutes and then stimulated with TNFalpha for 30 minutes in the presence of drugs. Cells were then fixed with 2% formaldehyde in HBSS and subsequently stained with Hoechst 33342. All liquid handling was done using a Biomek FX (Beckman) instrument and images were acquired as described above. Images were analyzed using Image J. Translocation is assessed by calculating the nuclear/cytoplasmic ratio of the mean fluorescence intensity for a population of cells (denoted as n) over several images for a given condition.
Genesis Plus is a collection of 960 diverse compounds, and includes compounds with known toxicity or fluorescent properties. Inclusion of compounds with such properties is important in HTS assay validation, as they might complicate analysis. The final concentration of compounds in wells was 10 micromolar, and all wells contained 0.5% DMSO concentration. […] Following fixation and staining of nuclei, fluorescence was analyzed on the automated fluorescent microscopy platform (Discovery 1; Universal Imaging/Molecular Devices Corp.). […]

Assay [2] concerns the target T1, Chk1/p53 interaction (Homo sapiens, UniProt O14757).
T1 construct: expressed in transfected cells; host or cells: HEK293E
T1 sequence (O14757 1-476): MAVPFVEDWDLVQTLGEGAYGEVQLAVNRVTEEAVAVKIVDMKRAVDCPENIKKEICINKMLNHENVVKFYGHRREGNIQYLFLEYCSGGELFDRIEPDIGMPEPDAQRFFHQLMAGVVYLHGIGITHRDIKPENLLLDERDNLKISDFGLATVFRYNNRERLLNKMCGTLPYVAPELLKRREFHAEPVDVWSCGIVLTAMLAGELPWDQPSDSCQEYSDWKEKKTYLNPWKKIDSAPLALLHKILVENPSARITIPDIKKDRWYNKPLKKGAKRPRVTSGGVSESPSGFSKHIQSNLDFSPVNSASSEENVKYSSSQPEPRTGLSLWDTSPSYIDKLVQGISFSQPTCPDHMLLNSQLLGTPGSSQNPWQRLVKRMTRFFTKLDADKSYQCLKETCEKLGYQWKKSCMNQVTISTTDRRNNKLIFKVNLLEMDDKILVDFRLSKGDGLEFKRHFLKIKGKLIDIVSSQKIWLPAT
As to the kind of experiment: beta-lactamase PCA (BLA PCA) for Chk1/p53 in HEK293E cells. The assay is classed as cell-based. The following applies: HEK293E cells treated with 300 nM camptothecin; 10 micromolar DBH, 50 micromolar Go6976. As for the experimental part: For the BLA PCA, the genes of interest—which were known to be involved in DNA damage response pathways—were fused to BLA reporter fragments, and co-transfected in pairs (in 6 replicates) into HEK293E cells. Specifically, interactions between two key proteins, p53 and the checkpoint kinase, Chk1, were evaluated for their response to the DNA damaging agent camptothecin (CPT) and various known drugs or compounds. Full length cDNAs (sequence verified) encoding p53 [NM_000546] and Chk1 [NM_001274] were amplified by PCR and the resulting fragments fused in-frame to the 3′-end of BLA[1] or BLA[2] through a flexible 10 amino acid linker. The resulting BLA[1]-p53, BLA[2]-p53, and BLA[2]-Chk1 constructs contained an EBNA-1 origin for episomal replication in HEK293E cells, but no selectable markers for long term maintenance in cell culture. All constructs were sequenced to confirm the integrity of the reporter-gene fusion prior to use in assays. […] Hydrolysis of the beta-lactam ring by reconstituted BLA releases free coumarin which has a blue fluorescence. […] For each protein pair, the rate of hydrolysis of the substrate was determined immediately after addition of substrate by a kinetic assay on a Molecular Devices Gemini XS plate reader. Accumulated fluorescent substrate was excited at 345 nm and detected at 440 nm every 10 minutes for a 90 minute period. […]

Assay [3] has as its system p53/p53 interaction. As to the kind of experiment: high-content IFP PCA for p53/p53, nuclear mean fluorescence. The assay is classed as cell-based, human. The following applies: Trichostatin A 0.5 micromolar; for effect on p53/p53 interaction (nuclear mean fluorescence) in the presence of CPT: 500 nM CPT 16 hours, MS-275 10 micromolar, HA 14-1 2 micromolar; for effect on p53/p53 interaction in both assays (absence and presence of CPT): unstimulated and 500 nM CPT-stimulated, LY294002 25 micromolar, SB 203580 25 micromolar, Geldanamycin 2.5 micromolar. The text has this: Open reading frames of full-length human p53 were fused in-frame to the 5′-end of IFP[1] and the 3′-end of IFP[2] to generate the following constructs in a pcDNA3.1 (Invitrogen) backbone: p53-IFP[1] and IFP[2]-p53. The final p53-IFP[1] construct contained a Zeocin selectable marker, while the IFP[2]-p53 construct contained a hygromycin selectable marker. All fusions were through a flexible linker encoding a 10-amino acid peptide (GlyGlyGlyGlySer)2, also referred to throughout as (GGGGS)2 (SEQ ID No.1). DNAs from recombinant constructs were isolated on a Beckman FX robotic workstation (Beckman Coulter, Fullerton, Calif.) using Qiagen Turbo BioRobot Prep kits or manually using Qiagen Midi Prep kits. Isolated DNAs were quantitated and then normalized to a concentration of 50 ng/microliter.
Approximately 24 hours prior to transfection cells were seeded into 96 well poly-D-Lysine coated plates (Greiner) using a Multidrop 384 peristaltic pump system (Thermo Electron Corp., Waltham, Mass.) at a density of 7,500 cells per well. A total of 100 ng of DNA (p53–IFP[1] and IFP[2]-p53) was co-transfected using Fugene 6 (Roche) according to the manufacturer's protocol. Cells expressing the PCA pair in the absence of stimulation were incubated with medium containing drugs for 30 minutes, 90 minutes, and 8 hours. Alternatively, cells stimulated with camptothecin (CPT) were pre-treated with drugs for 2 hours, then incubated with 500 nM CPT for an additional 16 hours in the presence of the following test compounds that were known or suspected to affect the p53 pathway: CPT, genistein, Trichostatin A, MS-275, LY294002, SB203580, HA14-1, or Geldanamycin, at the concentrations indicated in the Legend to FIG. 4. […] Fluorescence resulting from IFP PCA was captured using the Discovery-1automated fluorescence imager (Molecular Devices, Inc.) equipped with a robot arm (CRS Catalyst Express; Thermo Electron Corp., Waltham, Mass.). Images were acquired for YFP fluorescence (excitation filter: 480/40 nm; emission filter 535/50 nm), Hoechst fluorescence (excitation filter: 360/40 nm; emission filter 465/30 nm), and Texas Red fluorescence (excitation filter: 560/50 nm; emission filter 650/40 nm). […]
Automated image analysis was performed using Image J freeware to quantitate the level of fluorescence contributed by the PCA in each image. For the p53:p53 PCA, background contributed by cellular auto-fluorescence was subtracted from each image, then the mean pixel fluorescence intensity was determined within the nucleus of each cell. […] Quantitative values for the unstimulated PCA are shown in mauve, with data from the CPT-stimulated assay shown in blue. […]

Entries after “also recorded” stand apart in the source; their conditions may differ.

`Cn1c(=O)[nH]c(=O)c2[nH]cnc21` [3-methylxanthine]: the “result in Genesis Plus library screen of p50/p65 PCA” value in assay [1] was “called as hits”.

Consider `NC1=N/C(=C2/CCNC(=O)c3[nH]ccc32)C(=O)N1` [DBH], for which the “effect on the interaction between Chk1 and p53 (mean rate of hydrolysis of BLA substrate)” value in assay [2] is “significant effects”. Same read-out and setting: as for `Cn1c2ccccc2c2c3c(c4c5ccccc5n(CCC#N)c4c21)CNC3=O` [Go6976], the entry is “significant effects”. On to `Nc1ccccc1NC(=O)c1ccc(CNC(=O)OCc2cccnc2)cc1` [MS-275], for which the “effect on p53/p53 interaction (nuclear mean fluorescence) in the presence of CPT” value in assay [3] is reported as “significantly stimulated”. As to `C[S+]([O-])c1ccc(-c2nc(-c3ccncc3)c(-c3ccc(F)cc3)[nH]2)cc1` (centres unmarked) [SB 203580], the “effect on p53/p53 interaction in both assays (absence and presence of CPT)” value in assay [3] was “increased association”. `CC(/C=C/C(=O)NO)=C\[C@@H](C)C(=O)c1ccc(N(C)C)cc1` [Trichostatin A]: in assay [3], the “effect on p53/p53 interaction (nuclear mean fluorescence) in the presence of CPT” value is given as “dramatic increase; also recorded: significantly stimulated”; the “effect on p53/p53 interaction in both assays (absence and presence of CPT)” value is “potentiating effect”.

For `C=C(C)[C@H]1Cc2c(ccc3c2O[C@@H]2COc4cc(OC)c(OC)cc4[C@@H]2C3=O)O1` [rotenone], the “result in Genesis Plus library screen of p50/p65 PCA” value in assay [1] was “called as hits”.

For the origin of these results see patent US7062219B2, “Protein fragment complementation assays for high-throughput and high-content screening” (Odyssey Thera Inc., priority 1997, dated 2006).
